Tested on: A431 cells
Assay: A431 cell proliferation assay (MTT), alone and in combination with Tarceva
Assay type: cell-based
Conditions: for A431 Cell Proliferation CI Value: combination with Tarceva, CI <0.8 indicates synergy, Example 9, Table 7B; for IC50: Homo sapiens, A-431, A431 cells, further studies, Example 9, Table 7A, read-out: A431 Cell Proliferation (IC50 Value)
Experimental: This example describes an assay that measures the ability of compounds to inhibit the proliferation of cultured cells. This assay can also be used to assess whether combining two or more compounds produces additive, synergistic, or antagonistic effects on cell growth.
On day 1, the cells were seeded at 10^3 cells per well in 100 μl of complete media under standard conditions.
On day 2, the cells were washed and 100 μl serum free media was added. The cells were then incubated for at least 2 hours before the addition of compound(s). 20 μl of compound(s) was added to the respective wells and incubated at 37° C., 5% CO2 for 72 hrs.
On day 5, 50 μl of the MTT dye solution was added to each well. The plates were incubated at 37° C., 5% CO2 for 1 hr. The media was then aspirated and the cells were resuspended in […] of DMSO. The plates were allowed to incubate for 5 min at room temperature with gentle shaking.
The absorbance in each well was determined at 560 nm using a Polarstar plate reader.
The A431 cell line over-expresses the EGF receptor, and was utilized to assess the ability of AD4 compounds to inhibit EGF-mediated cell proliferation.

SMILES | IC50 | A431 Cell Proliferation CI Value
Oc1c(C(Nc2cccnc2)c2cccs2)ccc2cccnc12 (stereo not drawn) [AD4-10315] |  | 0.79
Oc1c(C(Nc2ccccn2)c2ccc(Cl)cc2Cl)ccc2cccnc12 (stereo not drawn) [AD4-10484] |  | 0.97
Cc1cccc(NC(c2ccc(OC(F)(F)F)cc2)c2ccc3cccnc3c2O)n1 (stereo not drawn) [AD4-12902] |  | 0.7
Cc1cccc(NC(c2cccc(C(F)(F)F)c2)c2ccc3cccnc3c2O)n1 (stereo not drawn) [AD4-12903] |  | 0.67
Cc1cccc(NC(c2cccc(Cl)c2Cl)c2ccc3cccnc3c2O)n1 (stereo not drawn) [AD4-12905] |  | 0.67
Cc1ccnc(NC(c2cccc(Cl)c2Cl)c2ccc3cccnc3c2O)c1 (stereo not drawn) [AD4-12906] |  | 0.66
COc1ccc(C(Nc2cccc(C)n2)c2ccc3cccnc3c2O)cc1O (stereo not drawn) [AD4-12909] |  | 0.54
Oc1c(C(Nc2ccccn2)c2cc(Cl)ccc2Cl)ccc2cccnc12 (stereo not drawn) [AD4-12910] |  | 0.69
Cc1ccnc(NC(c2ccc(Cl)c(Cl)c2)c2ccc3cccnc3c2O)c1 (stereo not drawn) [AD4-12917] |  | 0.54
Cc1cccc(NC(c2ccc3cccnc3c2O)c2c(F)c(F)cc(F)c2F)n1 (stereo not drawn) [AD4-12918] |  | 0.65
Oc1c(C(Nc2ccc(C(F)(F)F)nc2)c2ccc(C(F)(F)F)c(F)c2)ccc2cccnc12 (stereo not drawn) [AD4-13051] | 1600 nM | 0.72
Oc1c(C(Nc2ccc(Cl)cn2)c2ccc(Cl)c(Cl)c2)ccc2cccnc12 (stereo not drawn) [AD4-13054] |  | 0.61
Cc1cc(Cl)cnc1NC(c1cc(C(F)(F)F)ccc1Cl)c1ccc2cccnc2c1O (stereo not drawn) [AD4-13058] |  | 0.50
Cc1cc(Cl)cnc1NC(c1ccc2cccnc2c1O)c1c(F)c(F)cc(F)c1F (stereo not drawn) [AD4-13059] | 1000 nM | 0.71
Oc1c(C(Nc2ccc(C(F)(F)F)nc2)c2cc(C(F)(F)F)ccc2Cl)ccc2cccnc12 (stereo not drawn) [AD4-13062] |  | 0.57
Oc1c(C(Nc2ccc(C(F)(F)F)nc2)c2ccc(C(F)(F)F)cc2F)ccc2cccnc12 (stereo not drawn) [AD4-13065] | 4600 nM | 0.61
Oc1c(C(Nc2ccc(Cl)cn2)c2ccc(Cl)c(C(F)(F)F)c2)ccc2cccnc12 (stereo not drawn) [AD4-13067] |  | 0.63
Oc1c(C(Nc2ccc(F)cn2)c2c(F)c(F)cc(F)c2F)ccc2cccnc12 (stereo not drawn) [AD4-13070] |  | 0.65
Cc1cccc(NC(c2cccc(Cl)c2Cl)c2ccc3ccc(C)nc3c2O)n1 (stereo not drawn) [AD4-13073] | 1600 nM | 0.85
Cc1cccc(NC(c2ccc(Cl)c(Cl)c2)c2ccc3ccc(C)nc3c2O)n1 (stereo not drawn) [AD4-13080] |  | 0.68
Cc1cccc(NC(c2ccc3ccc(C)nc3c2O)c2c(Cl)cccc2Cl)n1 (stereo not drawn) [AD4-13089] |  | 0.67
Cc1ccnc(NC(c2ccc3cccnc3c2O)c2c(F)c(F)c(OCC(F)(F)F)c(F)c2F)c1 (stereo not drawn) [AD4-13092] | 1500 nM | 0.79
Cc1ccnc(NC(c2ccc(C(F)(F)F)cc2F)c2ccc3ccc(C)nc3c2O)c1 (stereo not drawn) [AD4-13096] | 3000 nM | 0.61
Oc1c(C(Nc2ccc(F)cn2)c2ccc(F)cc2Cl)ccc2cccnc12 (stereo not drawn) [AD4-13099] |  | 0.61
Cc1ccc2ccc(C(Nc3cccnc3)c3c(F)c(F)c(OCC(F)(F)F)c(F)c3F)c(O)c2n1 (stereo not drawn) [AD4-13101] |  | 0.66

Further lines, with some results ahead:

IC50 | SMILES | A431 Cell Proliferation CI Value
4200 nM | Oc1c(C(Nc2cccnc2)c2cccc(Cl)c2Cl)ccc2cccnc12 (stereo not drawn) [AD4-12908] | 0.64
1400 nM | Cc1cccc(NC(c2ccc(Cl)cc2Cl)c2ccc3cccnc3c2O)n1 (stereo not drawn) [AD4-12911] | 0.76
1200 nM | Cc1ccnc(NC(c2ccc(Cl)cc2Cl)c2ccc3cccnc3c2O)c1 (stereo not drawn) [AD4-12912] | 0.70
1400 nM | Oc1c(C(Nc2ccccn2)c2cc(Cl)cc(Cl)c2)ccc2cccnc12 (stereo not drawn) [AD4-12914] | 0.74
1100 nM | Cc1ccnc(NC(c2cc(Cl)cc(Cl)c2)c2ccc3cccnc3c2O)c1 (stereo not drawn) [AD4-12915] | 0.68
1800 nM | Cc1cccc(NC(c2cc(Cl)cc(Cl)c2Cl)c2ccc3cccnc3c2O)n1 (stereo not drawn) [AD4-13023] | 0.74
1800 nM | Oc1c(C(Nc2ccc(C(F)(F)F)cn2)c2ccc(C(F)(F)F)cc2)ccc2cccnc12 (stereo not drawn) [AD4-13028] | 0.76
1800 nM | Oc1c(C(Nc2ccc(C(F)(F)F)cn2)c2ccc(F)cc2F)ccc2cccnc12 (stereo not drawn) [AD4-13029] | 0.83
2000 nM | Oc1c(C(Nc2ccc(C(F)(F)F)cn2)c2ccc(Cl)c(Cl)c2)ccc2cccnc12 (stereo not drawn) [AD4-13030] | 0.83
1600 nM | Oc1c(C(Nc2ccc(C(F)(F)F)cn2)c2ccc(C(F)(F)F)cc2F)ccc2cccnc12 (stereo not drawn) [AD4-13031] | 0.74
1800 nM | Oc1c(C(Nc2ccc(C(F)(F)F)cn2)c2ccc(Cl)c(C(F)(F)F)c2)ccc2cccnc12 (stereo not drawn) [AD4-13032] | 0.69
1900 nM | Oc1c(C(Nc2ccc(C(F)(F)F)cn2)c2ccc(C(F)(F)F)c(F)c2)ccc2cccnc12 (stereo not drawn) [AD4-13034] | 0.70
2100 nM | Cc1cc(Cl)cnc1NC(c1ccc(C(F)(F)F)c(F)c1)c1ccc2cccnc2c1O (stereo not drawn) [AD4-13043] | 0.81
1800 nM | Oc1c(C(Nc2ccc(F)cn2)c2cc(C(F)(F)F)ccc2Cl)ccc2cccnc12 (stereo not drawn) [AD4-13049] | 0.84
1000 nM | Oc1c(C(Nc2ccc(Cl)cn2)c2cc(C(F)(F)F)ccc2Cl)ccc2cccnc12 (stereo not drawn) [AD4-13052] | 0.75
1500 nM | Oc1c(C(Nc2ccc(Cl)cn2)c2ccc(C(F)(F)F)c(F)c2)ccc2cccnc12 (stereo not drawn) [AD4-13055] | 0.75
1900 nM | Oc1c(C(Nc2ccc(C(F)(F)F)cn2)c2cc(C(F)(F)F)ccc2Cl)ccc2cccnc12 (stereo not drawn) [AD4-13056] | 0.63
1100 nM | Oc1c(C(Nc2ccccn2)c2ccc(Cl)c(C(F)(F)F)c2)ccc2cccnc12 (stereo not drawn) [AD4-13057] | 0.83
1500 nM | Oc1c(C(Nc2cc(Cl)ccn2)c2cc(C(F)(F)F)ccc2Cl)ccc2cccnc12 (stereo not drawn) [AD4-13060] | 0.76

IC50 | SMILES | A431 Cell Proliferation CI Value
2200 nM | Oc1c(C(Nc2ccc(F)cn2)c2ccc(C(F)(F)F)c(F)c2)ccc2cccnc12 (stereo not drawn) [AD4-13061] | 0.79
4400 nM | Oc1c(C(Nc2ccc(C(F)(F)F)nc2)c2ccc(C(F)(F)F)cc2)ccc2cccnc12 (stereo not drawn) [AD4-13063] | 0.77
5100 nM | Oc1c(C(Nc2ccc(C(F)(F)F)nc2)c2ccc(Cl)c(Cl)c2)ccc2cccnc12 (stereo not drawn) [AD4-13064] | 0.64
5400 nM | Oc1c(C(Nc2ccc(C(F)(F)F)nc2)c2ccc(Cl)cc2Cl)ccc2cccnc12 (stereo not drawn) [AD4-13066] | 0.60
5800 nM | Cc1cc(Cl)cnc1NC(c1ccc(F)cc1F)c1ccc2cccnc2c1O (stereo not drawn) [AD4-13068] | 0.68
920 nM | Oc1c(C(Nc2cc(Cl)ccn2)c2ccc(Cl)c(Cl)c2)ccc2cccnc12 (stereo not drawn) [AD4-13069] | 0.91
3500 nM | Oc1c(C(Nc2ccc(F)cn2)c2ccc(Cl)c(C(F)(F)F)c2)ccc2cccnc12 (stereo not drawn) [AD4-13071] | 0.70
1400 nM | Cc1cccc(NC(c2cc(Cl)cc(Cl)c2)c2ccc3ccc(C)nc3c2O)n1 (stereo not drawn) [AD4-13075] | 0.83
1400 nM | Cc1cccc(NC(c2cc(Cl)cc(Cl)c2)c2cc(Cl)c3cccnc3c2O)n1 (stereo not drawn) [AD4-13076] | 0.71
1800 nM | Cc1ccnc(NC(c2cc(Cl)cc(Cl)c2)c2cc(Cl)c3cccnc3c2O)c1 (stereo not drawn) [AD4-13079] | 0.91
1900 nM | Cc1cccc(NC(c2ccc(Cl)cc2Cl)c2ccc3ccc(C)nc3c2O)n1 (stereo not drawn) [AD4-13082] | 0.90
1500 nM | Oc1c(C(Nc2ccc(Cl)cn2)c2cccc(Cl)c2Cl)ccc2cccnc12 (stereo not drawn) [AD4-13086] | 0.80
1800 nM | Oc1c(C(Nc2ccc(Cl)cn2)c2ccccc2Cl)ccc2cccnc12 (stereo not drawn) [AD4-13087] | 0.70
1500 nM | Oc1c(C(Nc2ccc(Cl)cn2)c2ccc(F)cc2Cl)ccc2cccnc12 (stereo not drawn) [AD4-13088] | 0.76
1600 nM | Oc1c(C(Nc2ccc(Cl)cn2)c2c(F)cccc2Cl)ccc2cccnc12 (stereo not drawn) [AD4-13091] | 0.89
1800 nM | Oc1c(C(Nc2ccccn2)c2c(F)c(F)c(OCC(F)(F)F)c(F)c2F)ccc2cccnc12 (stereo not drawn) [AD4-13093] | 0.80
1300 nM | Oc1c(C(Nc2ccc(Cl)cn2)c2cc(Cl)cc(Cl)c2)ccc2cccnc12 (stereo not drawn) [AD4-13094] | 0.76
1600 nM | Oc1c(C(Nc2ccc(F)cn2)c2cc(Cl)cc(Cl)c2)ccc2cccnc12 (stereo not drawn) [AD4-13098] | 0.86

Source: patent US9023354B2, “Combination therapy with MDM2 and EFGR inhibitors” (priority 2010, dated 2015)
